Measured values from patent US20060210479A1 (Dow Global Technologies Inc., priority 2004, published 2006).

System: etoposide-induced (apoptotic) HEK293 cells
Experiment: Permeability of chelates to apoptotic cells, fluorescence of fractions
Type: cell-based, human
Experimental: The human kidney transformed HEK293 cells (obtained from the ATCC) were grown in Eagle's Minimum Essential Medium (EMEM) supplemented with 10% (v/v) heat-inactivated fetal bovine serum, sodium pyruvate, nonessential amino acids and antibiotics in a humidified 5% CO2 atmosphere at 37° C. Medium and supplements were purchased from Gibco bRL (Grand Island, N.Y.). Etoposide was obtained from Sigma (St. Louis, Mo.) and prepared as 20 mM solution in dimethyl sulfoxide (DMSO). For treatments, etoposide was applied to the HEK293 cultures at 1:1000 dilution (final concentration of 20 μM) after cell became 75% confluent. As a control, cells were fed with medium containing 0.1% DMSO in the absence of etoposide. After treatment with etoposide, cells were incubated in a humidified 5% CO2 at 37° C. for 24 hours. HEK293 cells were collected by removing treatment medium and washed 2 times with 10 mM HEPES buffer. Final cell pellets were resuspended in a small amount of HEPES and stored at 4° C. for further study.
Cells were grown to confluence in T-150 flasks (about 2×10^6 cells). […] After treatment, the chelate or analogue supernatant was discarded and the cells were rinsed three times at room temperature with 10 mM HEPES. Cells were then removed from the flask by manual scraping. Cells were transferred to a 50-mL conical tube and centrifuged (400×g) for 5 minutes and the test material removed. Remaining cells were rinsed twice with cold 10 mM HEPES. Cells were used in cell binding assays.

CCOP(=O)([O-])CN1CCN(Cc2ccc3cc(C)ccc3n2)CCN(CP(=O)([O-])OCC)CCN(CP(=O)([O-])OCC)CC1.[Eu+3] [Eu-QCTME, Eu(III) N-(6-methyl-2-quinolylmethyl)-N′,N″,N′″-tris(methylenephosphonic acid ethyl ester)-1,4,7,10-tetraazacyclododecane]
permeability to apoptotic induced HEK293 cells: permeable
Fluorescence/mg Membrane (HEK293 Apoptotic (etoposide 20 μM, 24 hours), 1 mM chelate, 2 hours): 1697
